# Data from article PMC11788324, “4,6-Disubstituted pyrimidine-based microtubule affinity-regulating kinase 4 (MARK4) inhibitors: synthesis, characterization, in-vitro activity and in-silico studies” (Frontiers in Pharmacology, 2025).
# Experiments:
# MARK4 [1] = target: T1, MARK4 (Homo sapiens, UniProt Q96L34); experiment: MARK4 ATPase (malachite green) enzyme inhibition assay; type: biochemical; settings: MARK4 5 μM, 1 hour at 25°C, triplicates
# T1 sequence (Q96L34 1-752): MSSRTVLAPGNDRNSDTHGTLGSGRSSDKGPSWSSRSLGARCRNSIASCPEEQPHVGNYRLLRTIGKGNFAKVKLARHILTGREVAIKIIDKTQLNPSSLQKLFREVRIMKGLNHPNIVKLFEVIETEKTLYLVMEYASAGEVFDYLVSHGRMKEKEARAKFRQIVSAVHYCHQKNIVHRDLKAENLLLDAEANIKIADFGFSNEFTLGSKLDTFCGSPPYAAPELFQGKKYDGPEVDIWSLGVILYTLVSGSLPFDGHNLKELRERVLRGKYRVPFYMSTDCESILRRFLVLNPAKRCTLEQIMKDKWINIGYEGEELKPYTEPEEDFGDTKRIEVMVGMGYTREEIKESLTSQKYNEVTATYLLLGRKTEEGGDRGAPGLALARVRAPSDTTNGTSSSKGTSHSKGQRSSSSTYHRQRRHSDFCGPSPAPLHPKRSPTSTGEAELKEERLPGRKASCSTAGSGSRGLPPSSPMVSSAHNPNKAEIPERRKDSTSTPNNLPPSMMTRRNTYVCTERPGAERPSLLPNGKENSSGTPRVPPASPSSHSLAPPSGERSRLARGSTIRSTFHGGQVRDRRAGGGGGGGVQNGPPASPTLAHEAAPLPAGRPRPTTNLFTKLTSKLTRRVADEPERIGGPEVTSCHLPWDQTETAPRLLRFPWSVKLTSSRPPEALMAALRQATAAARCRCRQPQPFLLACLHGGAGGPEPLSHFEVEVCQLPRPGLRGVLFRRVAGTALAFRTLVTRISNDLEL
# Protocol: The inhibitory potential of the synthesized compounds against MARK4 was analysed using the malachite green based enzyme inhibition assay. The malachite green kinase inhibition assay is a colorimetric technique designed to assess kinase activity by detecting the release of inorganic phosphate (Pi) during phosphorylation. When a kinase transfers a phosphate group from ATP to its substrate, Pi is generated as a byproduct. The malachite green reagent interacts with Pi to produce a green-colored complex, which can be quantified using a spectrophotometer. This assay is modified to evaluate enzyme inhibition by measuring the reduction in Pi release in the presence of potential inhibitors. […] The protein’s highest activity, MARK4 (ligand-free), was utilised as a reference, and various ligand concentrations were added to determine the IC50 value. […] Finally 96 well plates were filled with 100 μL of the reaction mixture, which was then scanned at 620 nm using a multiscan ELISA reader. […]
# MARKs, or microtubule-affinity regulating kinases, are a group of serine/threonine kinases found in mammals and other organisms ([Naz et al., 2013]). […] In the present study, we selected MARK4 as the target and assessed our compounds against it. […] Following this, attempts have been made to collect the fluorescence quenching of MARK4 in the presence of the best inhibitor (14). […]
# MARK4 [2] = target: T1, MARK4; experiment: Fluorescence quenching of MARK4; type: binding; settings: data not included
# Source text: MARKs, or microtubule-affinity regulating kinases, are a group of serine/threonine kinases found in mammals and other organisms ([Naz et al., 2013]). These kinases play a critical role in phosphorylating microtubule-associated proteins, which then go on to regulate important processes like cell cycle progression and cytoskeletal dynamics. These kinases are quite abundant in the human brain and are known to be key players in the development and progression of various diseases including cancer and ADs ([Alam et al., 2023]). Despite their high importance, there has been limited research on the development of synthetic small molecules (inhibitors) against MARK4 ([Li et al., 2020]; [Voura et al., 2022]). In the present study, we selected MARK4 as the target and assessed our compounds against it. The kinase inhibitory potential of the compounds against MARK4 was examined using an ATPase inhibition assay ([Yousuf et al., 2015]; [Yousuf et al., 2022]). […] Following this, attempts have been made to collect the fluorescence quenching of MARK4 in the presence of the best inhibitor (14). […] The rationale behind the behaviour is currently under investigation.
# [3] = design: method as in Pant et al., 2024; settings: compared with donepezil; ref Pant et al., 2024; cited from earlier work
Structure (SMILES),IC50 (MARK4 [1]) [µM],fluorescence quenching of MARK4 emission (MARK4 [2]),neuroprotective effects [3]
"COc1ccc(S(=O)(=O)N2CCN(c3cc(-c4ccsc4)ncn3)CC2)c(OC)c1 [Compound 9, 4-(4-((2,4-Dimethoxyphenyl)-sulfonyl)-piperazin-1-yl)-6-(thiophen-3-yl)-pyrimidine]",13 ± 0.63,,
"O=S(=O)(c1cccc2ccccc12)N1CCN(c2cc(-c3ccsc3)ncn2)CC1 [Compound 14, 4-(4-(Naphthalen-1-ylsulfonyl)-piperazin-1-yl)-6-(thiophen-3-yl)-pyrimidine]",7.52 ± 0.33,did not show appreciable quenching,
Clc1ccc(Cc2ccnc(CCN3CCCCC3)n2)cc1 [a],,,neuroprotective effects better than donepezil
